Assay results: a melting point compilation (Tetko et al.; mined from patent text by program, amines drawn as free bases though some values may be those of a salt)

melting point [°C]	SMILES
142 to 144	O=C(Oc1ccc(Cl)cc1Cn1nc(-c2ccc(C(F)(F)F)cc2)oc1=O)c1ccc(CCl)cc1
123 to 126	N#CC=C(C#N)Nc1ccccc1
255 to 256	COc1cc(Br)c(-n2c(=O)[nH]c3c(-c4ccccc4C(F)(F)F)nc(C)nc32)c(OC)c1
170 to 172	CCC(=O)c1cnc2c(OCCO)cccc2c1Nc1ccc(F)cc1C
141 to 143	COc1ccc(CCC(=O)O)c(Cl)c1Cl
44 to 47	CC(=O)CCCCN1CCN(c2ncccn2)CC1
171 to 173	CC1(C(=O)O)OCCC2=CC3=CC=CCC3=C21 (stereo not drawn)
188 to 192	O=C(NC(=O)c1c(Cl)cccc1Cl)Nc1cncc(C(F)(F)F)n1
199 to 200	Cc1nc2ccc(F)cc2n1C1CC2CC(=O)CC2C1 (stereo not drawn)
215	CCn1cc(C(=O)O)c(=O)c2cc(Cl)c(N3CCN(CCO)CC3)cc21
218	CCCC1=C(C(=O)OCC)C(c2ccccc2[N+](=O)[O-])c2c[nH]nc2N1 (stereo not drawn)
59 to 60	CN1Cc2ccccc2N(C)S1(=O)=O
249 to 251	Cn1nnc2cc3c(cc2c1=O)OC1CCCN1C3=O (stereo not drawn)
115 to 117	CCOC(=O)/C=C(C)/C(F)=C/C=C(C)/C=C/c1c(C)cc(OC)c(C)c1Cl
170	Cc1cc2cc(CN3CCCCCC3)cnc2cc1NC(=O)c1ccc(-c2ccc(F)cc2)cc1F
275 to 276	Clc1cccc(Nc2ncnc3[nH]nc(N4CCOCC4)c23)c1
73 to 74	CC(C)Oc1ccc(C=O)c(Oc2ccc(Cl)cc2Cl)n1
143 to 145	O=c1c(-c2ccccc2)c(-c2ccccc2)oc2cc(OCC3CO3)ccc12 (stereo not drawn)
64.8	C#CCOc1cc(Oc2ccccc2C)ncn1
162 to 164	CCCCCCn1c2c(c(=O)n3nc(-c4ccccc4)cc13)CN(C1CCCCC1)C2=O
105 to 107	COC(=O)CN(C)C(=O)c1ccc(OC)c2cc(OC)ccc12
74 to 75	c1ccc2c(OC[C@H]3CCCN3c3ccnc4ncnn34)cccc2c1
142 to 143	CSc1nsc(NC(=O)C(C)(C)C)c1C(N)=O
45 to 60	CC(C)CSCc1c(-c2ccc(S(C)(=O)=O)cc2)cnn(-c2ccc(F)cc2)c1=O
168 to 196	CCOC(=O)c1c(Nc2c(C)cc(Br)cc2C)n[nH]c1C

melting point [°C]	SMILES
157 to 159	S=C(NN=Cc1cccc(-c2ccccc2Br)n1)NN1CCCC1
129 to 130	CCC(C)COC(=O)Oc1ccc(-c2ccc(O)cc2)cc1 (stereo not drawn)
218 to 220	CC(C)CCNC(=O)c1ccc(-c2nn(Cc3cccc(Cl)c3)c(=S)[nH]2)cc1
238 to 239	O=C(O)c1ccc(F)cc1Nc1ccc(I)cc1Cl
139 to 141	CC(=O)N1CCc2nc(C)nc(-c3ccc(Cl)cc3)c2C1
124 to 125	COC(=O)c1ccc(-c2nc(OC(C)=O)c(C)s2)cc1
94 to 95.9	COC(=O)NCc1nc(-c2cc(C(C)(C)C)c(O)c(C(C)(C)C)c2)cs1
115 to 117	N#CC(C#N)=C1c2ccccc2-c2c(C(=O)OCCc3ccccc3)cccc21
126 to 128	CCOC(=O)C(=CNc1cn[nH]c1)C(C)=O
93 to 94	O=[N+]([O-])c1ccc(F)c(CNCCO)c1
227	COCc1cc(C)nc2nc(S(=O)(=O)Nc3c(C)cccc3Cl)nn12
149 to 155	CC(C)CNC(=O)c1cc([N+](=O)[O-])cc([N+](=O)[O-])c1
101 to 102	N#CC(C#N)=C1N(CCCN2CCCCC2)CCN1CCN1CCc2ccccc2C1
191 to 192	CC(=O)NC(=Cc1cccnc1)C(=O)O
135 to 136	COc1c(O)c(C)c(CN2CCN(C(=S)SC)CC2)c(O)c1OC
120 to 121	CSc1cnc(OCCOc2ncnc(NS(=O)(=O)c3ccc(C(C)(C)C)cc3)c2Br)nc1
109 to 111	COc1ccc(Nc2ccccc2)c(NS(C)(=O)=O)c1
110	CCOC(=O)CCCC(=O)CNC(=O)c1csc(NC(=O)NCc2ccccn2)n1
108	Cc1ccccc1NC(C#N)c1c(Cl)cccc1Cl (stereo not drawn)
97 to 98	CCOC(=O)COC1CCN(C(=O)[C@H](C)CC(=O)c2ccc(C#N)cc2)CC1
240 to 243	Nc1ncccc1-c1nc2ccc(Cl)nc2n1-c1ccc(CNC(=O)c2cccc(F)c2)cc1
170 to 188	COc1ccc(Cn2c(=O)c(=NNc3ccccc3)c(=O)n(CC34CC5CC(CC(C5)C3)C4)c3ccccc32)cc1
133 to 135	CCOC(=O)CCC(O)c1cnc2c(OC)cccc2c1Nc1ccccc1C (stereo not drawn)
95 to 96	OC1(c2ccc3c(c2)OCO3)CCC2(CC1)OCCO2
210 to 211	CC(C)n1nc(-c2c(-c3ccccc3)nn3ccc(OC4CCOCC4)cc23)ccc1=O

melting point [°C]	SMILES
181 to 182	CC(=O)OCCc1c(-c2ccccc2)nc(N)n2ncnc12
273 to 274	NC(=O)c1cc(NC(=O)c2ccccc2)ccc1SSc1ccc(NC(=O)c2ccccc2)cc1C(N)=O
218 to 220	CCc1cc(O)cc2cc(-c3ccc(O)cc3)oc12
94 to 97	COC(=O)CCCc1cc2cc(Cl)ccc2n1S(=O)(=O)c1cccc(C(C)C)c1
124 to 130	C#CCNC(=NCCSCc1ccccn1)NC#N
78	CC(O)C1(C)COC(c2ccc(F)cc2)OC1 (stereo not drawn)
81 to 83	C#Cc1ccc(-c2c(F)cccc2F)cc1
309	NS(=O)(=O)c1cnc(NC(=O)c2cnn3c(C(F)(F)F)cc(-c4ccc(C(F)(F)F)cc4)nc23)s1
140 to 142	N#CCCNC(=O)C1=CC(CF)(CF)Oc2ccc(Br)cc21
250 to 254	COc1ccc(Nc2cc(-c3ccccc3)nc(Nc3ccc(OC)c(Cl)c3)n2)cc1Cl
256 to 259	CC(=O)Nc1c(-c2ccc(-c3ccccc3)cc2)nc2ccc(F)cc2c1C(=O)O
48 to 50	O=C(O)CSCCCCOc1ccccc1
96 to 98	CCOC(=O)c1c(Br)nn(C)c1S(N)(=O)=O
132 to 134	O=C(Nc1cn(C2CCCCO2)nc1C(=O)NCC(O)Cc1ccccc1)c1ccccn1 (stereo not drawn)
> 250	CC(C)n1nc(-c2sc(N)nc2-c2ccccc2)ccc1=O
181 to 185	CCSc1ccc(-c2c(Cl)ncn2-c2ccc(S(C)(=O)=O)cc2)cc1
> 320	O=c1c2c(Cc3cccc([N+](=O)[O-])c3)n[nH]c2c2cccnc2n1-c1ccccc1
82 to 84	CCC[C@H](NC(=O)OCc1ccccc1)C(=O)C(N)P(=O)(OC)OC (stereo partly drawn)
99	O=C(NCc1ccccc1-c1ccccc1C(=O)NCCc1ccccn1)Nc1ccccc1
156	O=C1NC(=O)c2ccc(Br)cc2/C1=C/N1CCN(CCN2CCOCC2)CC1
115	CNC(=S)C1(c2ccccn2)CCCO1 (stereo not drawn)
174	O=C(NC(=O)N1CCC(Cc2ccccc2)CC1)c1ccc2[nH]c(=O)oc2c1
147 to 148	CN(C)CCNC1=CC(=O)c2nc(-c3ccccc3Br)oc2C1=O
